Measurements published in patent publication US12473339B2, “Acylated glucagon analogues” (Zealand Pharma A/S, priority 2013, dated 2025).
*1 amine or outer side, *2 acyl side, *3 side chain or, on linkers, in order; H or OH if unused. Where a SMILES comes first, the peptide text is derived from it. Side-chain parts run from the residue outwards. [ ]: non-standard residue; d: D form. The star is where a group is joined. C18 diacid = O=C(O)CCCCCCCCCCCCCCCCC(=O)*; γGlu = O=C(O)[C@H](CCC(=O)[*:2])N[*:1]; Ac4c = NC1(C(=O)O)CCC1; AEEA = NCCOCCOCC(=O)O

Legend:
Assay type in all cases: cell-based
[1] = molecular target: T1, endogenous GLP-1 receptors (Mus musculus, UniProt O35659); experiment: Agonistic activity on endogenous GLP-1 receptor (cAMP, murine insulinoma cell line); details: intracellular cAMP, 15 minutes at 26° C.
T1 construct: Agonistic activity of the test compounds on endogenous GLP-1 receptors; endogenous in cells
T1 sequence (O35659 22-463): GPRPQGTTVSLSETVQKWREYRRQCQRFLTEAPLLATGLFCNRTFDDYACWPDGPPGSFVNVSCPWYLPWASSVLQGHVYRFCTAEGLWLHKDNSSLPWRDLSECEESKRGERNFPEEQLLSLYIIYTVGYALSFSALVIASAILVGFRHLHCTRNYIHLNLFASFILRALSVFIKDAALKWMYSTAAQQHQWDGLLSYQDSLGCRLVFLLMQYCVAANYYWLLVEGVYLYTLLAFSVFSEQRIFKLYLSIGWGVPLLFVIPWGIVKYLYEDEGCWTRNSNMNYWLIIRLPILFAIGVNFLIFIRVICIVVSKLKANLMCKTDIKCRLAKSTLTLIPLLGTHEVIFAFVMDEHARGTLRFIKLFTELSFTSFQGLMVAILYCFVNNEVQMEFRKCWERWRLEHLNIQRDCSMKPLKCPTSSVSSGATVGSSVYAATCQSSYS
Description: Agonistic activity of the test compounds on endogenous GLP-1 receptors was determined using a murine insulinoma cell line. Intracellular cAMP was used an indicator of receptor activation.
Cells were cultured for 24 h at a density of 10,000 cells/well in a 384-well plate. Medium was removed and 10 μL KRBH buffer (NaCl 130 mM, KCl 3.6 mM, NaH2PO4 0.5 mM, MgSO4 0.5 mM, CaCl2 1.5 mM) containing test compound or GLP-1 (at increasing concentrations from 0.1 pM to 100 nM) or solvent control (0.1% (v/v) DMSO) was added to the wells for 15 minutes at a temperature of 26° C.
The cellular cAMP content is measured using the AlphaScreen cAMP Functional Assay Kit (Perkin Elmer). Measurement was performed using the Envision (PerkinElmer) according to manufacturer's recommendations.
Results were converted into cAMP concentrations using a cAMP standard curve prepared in KRBH buffer containing 0.1% (v/v) DMSO. The resulting cAMP curves were plotted as absolute cAMP concentrations (nM) over log (test compound concentration) and analyzed using the curve fitting program XLfit. […]

[2] = molecular target: T2, human glucagon-like peptide 1 receptor (GLP-1R) (Homo sapiens, UniProt P43220); experiment: GLP-1 receptor efficacy assay (cAMP AlphaScreen, CHO cells); details: for Ratio GLP-1/Glucagon: EC50 [GLP-1R] / EC50 [Glucagon-R], human receptors in CHO-K1
T2 construct: expressed in transfected cells
T2 sequence (P43220 24-463): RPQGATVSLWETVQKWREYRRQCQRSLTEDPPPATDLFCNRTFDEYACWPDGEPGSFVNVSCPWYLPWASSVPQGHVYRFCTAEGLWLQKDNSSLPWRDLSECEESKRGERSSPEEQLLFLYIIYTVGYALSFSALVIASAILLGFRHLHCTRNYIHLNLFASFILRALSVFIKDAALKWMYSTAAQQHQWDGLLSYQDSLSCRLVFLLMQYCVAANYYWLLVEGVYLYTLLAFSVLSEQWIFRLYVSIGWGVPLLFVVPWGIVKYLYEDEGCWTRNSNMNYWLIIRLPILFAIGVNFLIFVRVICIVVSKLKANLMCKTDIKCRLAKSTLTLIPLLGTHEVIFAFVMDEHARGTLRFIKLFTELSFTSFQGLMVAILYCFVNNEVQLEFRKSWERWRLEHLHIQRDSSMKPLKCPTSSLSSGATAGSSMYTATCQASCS
How it was run: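 Stable CHO clones expressing the human receptor, seeded 24 h before assay. Peptides applied for 15 min at room temperature in KRBH with 0.1 mM IBMX; cells lysed and cAMP quantified by AlphaScreen. EC50 and efficacy relative to glucagon or GLP-1 from curve fitting.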

[3] = molecular target: T3, human glucagon receptor (Glucagon-R) (Homo sapiens, UniProt P47871); experiment: Glucagon receptor efficacy assay (cAMP AlphaScreen, CHO cells); details: cAMP formation, CHO cells expressing human Glucagon-R, 15 min; read-out: EC50 hGCGR CHO-K1
T3 construct: expressed in transfected cells
T3 sequence (P47871 26-477): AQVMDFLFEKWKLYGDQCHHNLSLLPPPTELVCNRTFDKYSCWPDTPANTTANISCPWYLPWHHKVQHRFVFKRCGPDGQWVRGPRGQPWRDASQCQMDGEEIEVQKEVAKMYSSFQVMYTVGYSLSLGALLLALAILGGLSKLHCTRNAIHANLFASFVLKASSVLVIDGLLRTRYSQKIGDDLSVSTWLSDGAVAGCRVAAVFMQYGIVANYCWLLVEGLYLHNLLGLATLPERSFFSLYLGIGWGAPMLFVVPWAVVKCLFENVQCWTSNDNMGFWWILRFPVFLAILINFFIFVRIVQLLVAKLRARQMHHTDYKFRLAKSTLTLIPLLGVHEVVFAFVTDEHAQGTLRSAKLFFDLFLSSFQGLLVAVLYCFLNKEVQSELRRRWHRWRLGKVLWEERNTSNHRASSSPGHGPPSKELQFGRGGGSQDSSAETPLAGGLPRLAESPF
Excerpt: The cDNA encoding either the human glucagon receptor (Glucagon-R) (primary accession number P47871) or the human glucagon-like peptide 1 receptor (GLP-1R) (primary accession number P43220) were synthesized and cloned into a mammalian expression vector containing a Zeocin resistance marker.
The mammalian expression vectors encoding the Glucagon-R or the GLP-1-R were transfected into Chinese hamster ovary (CHO) cells by the Attractene method. Stably expressing clones were obtained by Zeocin selection (250 μg/mL) upon limited dilution of cells resistant to the selection pressure. Glucagon-R and GLP-1-R cell clones expressing were picked, propagated and tested in the Glucagon-R and GLP-1-R efficacy assays as described below. One Glucagon-R expressing clone and one GLP-1-R expressing clone were chosen for compound profiling.
CHO cells expressing the human Glucagon-R, or human GLP-1-R were seeded 24 hours prior to the assay at 30,000 cells per well in 96-well microtiter plates in culture in 100 μl growth medium. On the day of analysis, growth medium was removed and the cells were washed once with 200 μl of assay buffer (Krebs-Ringer-buffer—KRBH). The buffer was removed and the cells were incubated for 15 min at room temperature in 10 μl KRBH (KRBH+10 mM HEPES, 5 mM NaHCO3, 0.1% (V/V) BSA) with 0.1 mM IBMX in deionized water containing increasing concentrations of test peptides. The reaction was stopped by the addition of lysis buffer (0.1% w/v BSA, 5 mM HEPES, 0.3% v/v Tween-20). After cell lysis for 10 min at room temperature, lysates were transferred to 384-well plates and 10 μl of acceptor/donorbead mixture as contained in the AlphaScreen™ cAMP Functional Assay Kit was added. After one hour of incubation at room temperature in the dark, the cAMP content was determined applying the AlphaScreen™ cAMP Functional Assay Kit from Perkin-Elmer according to manufacturer instructions. EC50 and relative efficacies compared to reference compounds (glucagon and GLP-1) were calculated applying computer aided curve fitting. The GLP-1/glucagon ratio is calculated as defined earlier.

[4] = molecular target: T4, endogenous glucagon receptor (Rattus norvegicus, UniProt P30082); experiment: Agonistic activity on endogenous glucagon receptor (glycogen synthesis rate in primary rat hepatocytes); details: inhibition of glycogen synthesis rate (14C-glucose incorporation), 3 hours
T4 construct: Agonistic activity of the test compounds on endogenous glucagon receptor; endogenous in cells; host or cells: primary rat hepatocytes
T4 sequence (P30082 27-485): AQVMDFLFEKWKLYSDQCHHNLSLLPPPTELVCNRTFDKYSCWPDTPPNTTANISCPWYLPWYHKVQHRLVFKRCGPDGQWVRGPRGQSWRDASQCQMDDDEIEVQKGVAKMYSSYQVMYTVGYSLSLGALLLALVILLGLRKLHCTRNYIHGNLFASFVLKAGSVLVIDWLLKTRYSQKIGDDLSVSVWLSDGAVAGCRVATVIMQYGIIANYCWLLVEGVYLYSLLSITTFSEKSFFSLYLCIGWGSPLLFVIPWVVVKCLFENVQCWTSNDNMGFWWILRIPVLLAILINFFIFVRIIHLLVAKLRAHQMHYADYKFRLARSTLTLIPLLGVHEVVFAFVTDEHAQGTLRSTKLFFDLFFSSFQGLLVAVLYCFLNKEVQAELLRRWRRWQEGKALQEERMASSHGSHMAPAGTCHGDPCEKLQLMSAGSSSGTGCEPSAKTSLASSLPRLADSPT
Description: Agonistic activity of the test compounds on endogenous glucagon receptor was determined by measuring their effect on rate of glycogen synthesis in primary rat hepatocytes. Upon activation of the glucagon receptor, an inhibition of the glycogen synthesis rate is expected. Rate of glycogen synthesis was determined by counting the amount of radioactively labeled glucose incorporated into the cellular glycogen stores in a defined period of time.
Primary rat hepatocytes were cultured at a density of 40,000 cells/well in a 24-well plate for 24 hours at 37° C. and 5% CO2.
Medium was discarded and the cells washed with PBS. 180 μL of KRBH-based buffer containing 0.1% BSA and glucose at a concentration of 22.5 mM was then added to the wells, followed by test compound and 40 μCi/ml D-[U14C] glucose (20 μL each). Incubation was continued for 3 hours.
At the end of the incubation period, the incubation buffer was aspirated and cells washed once with ice-cold PBS before lysis by incubation for 30 min at room temperature with 100 μL 1 mol/l NaOH.
Cell lysates were transferred to 96-well filter plates and glycogen precipitated by incubating the filter-plates for 120 min at 4° C. followed by washing the filter plates 4 times with ice-cold ethanol (70%). The resulting precipitates were filtered to dryness and the amount of incorporated ^14C-glucose determined by using a Topcount scintillation counter according to manufacturer's recommendations.
Wells with vehicle controls (0.1% (v/v) DMSO in KRBH buffer) were included as reference for non-inhibited glycogen synthesis (100% CTL). Wells without added D-[U^14C] glucose were included as controls for non-specific background signal (subtracted from all values). Endogenous glucagon peptide was used as a positive control.
All treatments were performed at least in duplicates.
Parameters calculated to describe both the potency as well as the agonistic activity of each test compound on the endogenous glucagon receptor are pEC50 and % CTL.
% CTL is determined by calculating the percentage of CPM/well in the presence of the test compound compared to the CPM/well of the vehicle control after subtracting the background CPM/well: [CPM/well(basal)−CPM/well(sample)]*100/[CPM/well(basal)−CPM/well(control)]
An activator of the glucagon receptor will result in an inhibition of the glycogen synthesis rate and will give % CTL values between 0% CTL (complete inhibition) and 100% CTL (no observable inhibition).
The resulting activity curves were plotted as absolute counts (unit: cpm/sample) over log (test compound concentration) and analyzed using the curve fitting program XLfit.
pEC50 (negative logarithmic value of EC50) reflects the potency of the test compound. […]

Compound | EC50 [1] [nM] | Ratio GLP-1/Glucagon [2] | EC50 [3] [nM] | EC50 [4] [nM] | EC50 ([2]; cAMP formation, CHO cells expressing human GLP-1-R, 15 min, read-out: EC50 hGLP-1R CHO-K1) [nM]
CC(C)C[C@H](NC(=O)[C@H](CC(C)C)NC(=O)[C@H](Cc1c[nH]c2ccccc12)NC(=O)[C@H](CCC(=O)O)NC(=O)[C@@H](NC(=O)[C@H](Cc1ccccc1)NC(=O)[C@H](CC(=O)O)NC(=O)[C@H](Cc1c[nH]cn1)NC(=O)[C@H](C)NC(=O)[C@H](C)NC(=O)[C@H](CCCCNC(=O)CC[C@H](NC(=O)CCCCCCCCCCCCCCC(=O)O)C(=O)O)NC(=O)[C@H](CO)NC(=O)[C@H](CC(=O)O)NC(=O)[C@H](CC(C)C)NC(=O)[C@H](Cc1ccc(O)cc1)NC(=O)[C@H](CCCCN)NC(=O)[C@H](CO)NC(=O)[C@H](Cc1ccc(O)cc1)NC(=O)[C@H](CC(=O)O)NC(=O)[C@H](CO)NC(=O)[C@@H](NC(=O)[C@H](Cc1ccccc1)NC(=O)[C@@H](NC(=O)CNC(=O)[C@H](CCC(N)=O)NC(=O)C(C)(C)NC(=O)[C@@H](N)Cc1c[nH]cn1)[C@@H](C)O)[C@@H](C)O)C(C)C)C(=O)N[C@@H](CO)C(=O)N[C@@H](C)C(N)=O [Compound 1, H-H-Aib-QGTFTSDYSKYLDS-K([15-carboxy-pentadecanoyl]-isoGlu)-AAHDFVEWLLSA-NH2] | 0.6 | 1.81 |  |  | 
CC[C@H](C)[C@H](NC(=O)[C@H](Cc1ccccc1)NC(=O)[C@H](CC(=O)O)NC(=O)[C@H](CCCCN)NC(=O)[C@H](C)NC(=O)[C@H](CCCNC(=N)N)NC(=O)[C@H](CCCCNC(=O)COCCOCCNC(=O)COCCOCCNC(=O)CC[C@H](NC(=O)CCCCCCCCCCCCCCCCC(=O)O)C(=O)O)NC(=O)[C@H](CCC(=O)O)NC(=O)[C@H](CC(=O)O)NC(=O)[C@H](CC(C)C)NC(=O)[C@H](Cc1ccc(O)cc1)NC(=O)[C@H](CCCCN)NC(=O)[C@H](CO)NC(=O)[C@H](Cc1ccc(O)cc1)NC(=O)[C@H](CC(=O)O)NC(=O)[C@H](CO)NC(=O)[C@@H](NC(=O)[C@H](Cc1ccccc1)NC(=O)[C@@H](NC(=O)CNC(=O)[C@H](Cc1c[nH]cn1)NC(=O)C1(NC(=O)[C@@H](N)Cc2c[nH]cn2)CCC1)[C@@H](C)O)[C@@H](C)O)C(=O)N[C@@H](CCC(=O)O)C(=O)N[C@@H](Cc1c[nH]c2ccccc12)C(=O)N[C@@H](CC(C)C)C(=O)N[C@@H](CCC(=O)O)C(=O)N[C@@H](CO)C(=O)N[C@@H](C)C(N)=O [Compound 9, H-H-Ac4c-HGTFTSDYSKYLDE-K([17-carboxy-heptadecanoyl]-isoGlu-Peg3-Peg3)-RAKDFIEWLESA-NH2] (H-H[Ac4c]HGTFTSDYSKYLDEK([AEEA-AEEA-γGlu-C18 diacid])RAKDFIEWLESA-NH2) |  | 13.86 | 0.07 | 0.11 | 0.97
CC[C@H](C)[C@H](NC(=O)[C@H](Cc1ccccc1)NC(=O)[C@H](CC(=O)O)NC(=O)[C@H](CCCCN)NC(=O)[C@H](C)NC(=O)[C@H](C)NC(=O)[C@H](CCCCNC(=O)CC[C@H](NC(=O)CCCCCCCCCCCCCCCCC(=O)O)C(=O)O)NC(=O)[C@H](CCC(=O)O)NC(=O)[C@H](CC(=O)O)NC(=O)[C@H](CC(C)C)NC(=O)[C@H](Cc1ccc(O)cc1)NC(=O)[C@H](CCCCN)NC(=O)[C@H](CO)NC(=O)[C@H](Cc1ccc(O)cc1)NC(=O)[C@H](CC(=O)O)NC(=O)[C@H](CO)NC(=O)[C@@H](NC(=O)[C@H](Cc1ccccc1)NC(=O)[C@@H](NC(=O)CNC(=O)[C@H](CCC(N)=O)NC(=O)C(C)(C)NC(=O)[C@@H](N)Cc1c[nH]cn1)[C@@H](C)O)[C@@H](C)O)C(=O)N[C@@H](CCC(=O)O)C(=O)N[C@@H](Cc1c[nH]c2ccccc12)C(=O)N[C@@H](CC(C)C)C(=O)N[C@@H](CCC(=O)O)C(=O)N[C@@H](CO)C(=O)N[C@@H](C)C(N)=O [Compound 10, H-H-Aib-QGTFTSDYSKYLDE-K([17-carboxy-heptadecanoyl]-isoGlu)-AAKDFIEWLESA-NH2] | 0.6 | 0.38 |  |  | 
